Experimental data reported in patent publication US20250241976A1, “ADMINISTRATION OF AN ANTICANCER PEPTIDE” (Verrica Pharmaceuticals, Inc., priority 2024, published 2025).
Where a SMILES comes first, the peptide text is derived from it. [ ]: non-standard residue; d: D form. Dip = N[C@H](C(=O)O)C(c1ccccc1)c1ccccc1

How the values were obtained:
[1] = tested on: basal cell carcinoma (BCC) lesion; assay: Clinical study: intradermal injection of Peptide A into basal cell carcinoma lesions, with TRAEs, withdrawals and necrosis recorded; type: in vivo, human
Procedure: This study involved human adults ≥18 years of age with clinically suspected BCC with at least 1 (and up to 5) eligible lesion(s) suitable for biopsy and excision. The size of the lesion(s) were ≥0.5 cm and ≤2 cm in longest diameter prior to punch biopsy or ≥1 cm and ≤2 cm in longest diameter prior to shave biopsy. Histological diagnosis of nodular, micronodular, or superficial BCC, as confirmed by punch or shave biopsy, was performed within 90 days of treatment.
(§1) Peptide A was provided as the acetate salt, 20 mg of lyophilized powder per vial for injection. The powder was reconstituted in saline to a concentration ranging from 4-20 mg/mL based upon the target dose and volume for each subject. Peptide A was supplied in colorless glass vials (Ph. Eur. hydrolytic class I) fitted with rubber stopper (Ph. Eur. type I).
Peptide A (acetate salt) was administered via intradermal injection into a single target lesion (between ≥0.5 cm and ≤2 cm in longest diameter) using the 1-mL syringe and 30-gauge 0.5-inch needle. The subjects were positioned in a way so that the target lesion lies flat, to avoid any dependent areas that may be susceptible to leakage of the pharmaceutical composition. Subsequent injections for the same lesion were given in remaining nonnecrotic areas of the lesion, as assessed prior to treatment. […]
Cohort 2 was assigned a regimen of 8 mg of Peptide A for each treatment day (with no partitioned administration on any day).
[…] The total 500 μL (8 mg) dosage volume is divided into 2 injections given at least 15 minutes and no more than 30 minutes apart, with 30% (150 μL) administered in the first injection and the remaining 70% (350 μL) with the second injection.
A radial administration method was also used for Cohorts 4 and 5. The formulation with Peptide A is injected intradermally for all injections and subcutaneous injection should be avoided. It is important to ensure adequate and even distribution of Peptide A across the entire base of the lesion. To accomplish adequate and even distribution of Peptide A across the entire lesion: The first 150 μL is injected as centrally as possible such that Peptide A can distribute radially outward; and the second (350 μL) portion is injected in a clockface fashion (i.e., at 12, 3, 6, 9 o'clock as shown in FIG. 1) as needed to ensure uniform distribution into the periphery of the lesion. The needle is inserted at a 10- to 20-degree angle for a flat lesion, or at an increased angle (i.e., greater than 20-degree) for a raised lesion.

[2] = Storage of reconstituted Peptide A solution; type: physicochemical
Procedure: as §1
Peptide A vials (20 mg/vial) were stored at 2-8° C. (36-46° F.) or −20±5° C. (−13 to 5° F.) protected from light at the study site, separated from other drugs. The reconstituted Peptide A solution can be stored for up to 12 hours in a refrigerator at 2-8° C. (36-46° F.). Syringes with Peptide A drawn from the vial can be stored for up to 4 hours at 20-25° C. (68-77° F.) protected from light. Any unused portion was discarded.

Storage time of syringes with Peptide A drawn from the vial ([2]; 20-25° C., protected from light): up to 4 hours
Storage time of reconstituted Peptide A solution ([2]; reconstituted in saline, refrigerator at 2-8° C.): up to 12 hours
Compound: NCCCC[C@H](NC(=O)[C@@H](NC(=O)[C@H](Cc1c[nH]c2ccccc12)NC(=O)[C@H](CCCCN)NC(=O)[C@H](CCCCN)NC(=O)[C@H](Cc1c[nH]c2ccccc12)NC(=O)[C@H](Cc1c[nH]c2ccccc12)NC(=O)[C@H](CCCCN)NC(=O)[C@@H](N)CCCCN)C(c1ccccc1)c1ccccc1)C(N)=O [Peptide A, KKWWKKWDipK-NH2] (H-KKWWKKW[Dip]K-NH2)
Subjects experiencing TRAEs of burning and pain at the injection site ([1]; Cohorts 1 and 2, 4 mg then 8 mg or 8 mg daily, no partitioned administration): Several subjects
Subjects withdrawn from treatment due to TRAEs ([1]; Cohorts 1 and 2, no partitioned administration): Two subjects withdrew
Change in TRAEs ([1]; Cohorts 4 and 5, partitioned (30%/70%, 15-30 min apart) and radial administration, 8 mg in 500 μL): marked decrease
Withdrawal from study treatment due to TRAEs of burning or pain at the injection site ([1]; Cohorts 4 and 5 and expansion cohorts (10, 10, 26, 27 subjects enrolled), partitioned and radial administration, 8 mg): No subjects have withdrawn from study
Treatment status after TRAE ([1]; Subject 3, Cohort 1, W1D2, no partitioned administration, subject withdrawn from treatment): Discontinued
Lesion necrosis status ([1]; Subject 5, Cohort 1, W1D3 after 4 mg W1D1 and 8 mg W1D2, no partitioned administration, no injection given): Complete
TRAEs (pain severity) ([1]; Subject 8, Cohort 2, 8 mg on W1D1, no partitioned administration): experiencing moderate
Duration of pain post-treatment ([1]; Subject 8, Cohort 2, 8 mg, no partitioned administration): about 3-4 hours post-
Treatment status after TRAE ([1]; Subject 8, Cohort 2, W1D2, no partitioned administration, subject withdrew from treatment): Discontinued
TRAEs reported ([1]; Subject 9, Cohort 2, after the W1D2 treatment (8 mg), no partitioned administration, subject continued treatment): injection-site burning
